Laboratory results from PubChem BioAssay (NCI).
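Five compound concentrations were applied to cells in 96-well plates for 48 hours; endpoints were derived by simple linear interpolation of the resulting dose-response curve. Here, GI50 denotes the concentration required for 50% inhibition of growth. TGI is the concentration that stops growth completely.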 Where a SMILES comes first, the peptide text is derived from it. The star is where a group is joined. Cbz = O=C(OCc1ccccc1)*; CH2Cl = ClC*

test system: NCI/ADR-RES ovarian; assay: NCI anticancer screen, dose series, 48 h

Structure (SMILES) | GI50 | TGI
CC(C)Oc1ccc2cc(-c3nn(CC4CCNCC4)c4ncnc(N)c34)ccc2c1 | 6.23 µM | 19.6 µM
COc1cc(F)ccc1-c1ncnc(Nc2cccc(CS(C)(=N)=O)c2)n1 (configuration not stated) | 3.19 µM | > 100 µM
CS(=O)(=O)CCNCc1nc(-c2ccc3ncnc(Nc4ccc(OCc5cccc(C(F)(F)F)c5)cc4)c3c2)cs1 | > 25 µM | > 25 µM
CC(C)CC(NC(=O)OCc1ccccc1)C(=O)NC(Cc1ccccc1)C(=O)CCl (stereo not drawn) (Cbz-Leu-Phe-CH2Cl; configuration not given here) |  | 11.4 µM
[Cl][Hg][c]1cc[c]([Hg][Cl])o1 | 8.25 µM | > 100 µM
CCOC(=O)C(Cc1ccc(CCCC(=O)NCCC(=O)Nc2ccc3nc(C)sc3c2)cc1)C(=O)OCC | 24.6 µM | 69.1 µM
NCCNc1c2c(c(NCCN)c3[nH]ccc13)C(=O)c1ccccc1C2=O | 13.3 µM | 29.6 µM
Cc1c2c(C#N)nccc2c(C)c2c1c1ccccc1n2Cc1ccccc1 |  | > 100 µM
CCOC(=O)Nc1ccc(-c2nc(-c3cccc(OCCN4CCOCC4)c3)c(-c3ccnc(Br)c3)[nH]2)cc1 | 3.39 µM | > 100 µM
COc1cc(Cn2c(-c3ccccc3)c(Cl)c3c2-c2oncc2CC3)cc(OC)c1 | 2.58 µM | 8.96 µM
COc1ccc(-c2nn(-c3ccc(NC(=O)c4ccc(Cl)c(Cl)c4)cc3)cc2-c2ccncc2)cc1Cl | 4.12 µM | > 50 µM
CN(C)C(n1cc2c(c1)-c1ccc(Cl)cc1C(c1ccccc1F)=NC2)n1cc2c(c1)-c1ccc(Cl)cc1C(c1ccccc1F)=NC2 |  | > 100 µM
COc1cccc2c1C(=O)c1c(O)c3c(c(O)c1C2=O)C[C@](O)(C(=O)CO)C[C@H]3O[C@@H]1C[C@@H](NC(=O)CCCCCN(C)C2(c3ccc(F)cc3)CC3CCC2C3)[C@H](O)[C@@H](C)O1 (some centres not stated) | 13 µM | 50 µM

test system: HCC-2998 colon; assay: NCI anticancer screen, dose series, 48 h

Structure (SMILES) | TGI | GI50
O=C(O)Cc1cc(Cl)ccc1O | > 100 µM | 
COc1ccc(C(=O)/C=C/c2cc(-c3cc(OC)c(OC)c(OC)c3)n[nH]2)cc1OC | 3.78 µM | 2.13 µM
C=C(C)[C@@H]1CC[C@]2(C)[C@H](CC=C3[C@@H]4CC(C)(C)CC[C@]4(C(N)=O)CC[C@]32C)[C@@]1(C)CCC#N | > 100 µM | 4.02 µM
COc1c(OC[C@H](O)CN2CCOCC2)ccc2c3n(c(=NC(=O)c4cccnc4C)nc12)CCN3 | > 50 µM | 1.9 µM
O=C(c1ccccc1Br)C(F)(F)F | > 100 µM | 
COc1ccc(-c2nc3ccc(-c4nc5ccc(N6CCN(c7ccccc7)CC6)cc5[nH]4)cc3[nH]2)cc1OC | 3.34 µM | 1.72 µM
O=C(N[C@@H](c1ccc(Cl)c(Cl)c1)C1CNC1)c1ccc2cnccc2c1 | 3.51 µM | 0.246 µM
CO/N=C(\COc1ccc2c(c1)oc(=O)c1cc(OC)ccc12)c1ccc(OC)cc1 | > 100 µM | > 100 µM
O=C1OCC2=C1C(c1cccc(Br)c1)c1cc3c(cc1N2CCO)CCC3 (configuration not stated) | 1.66 µM | 0.13 µM
Clc1ccc2[nH]cc(-c3nnnn3-c3ccccc3)c2c1 | 20.1 µM | 5.32 µM
CC(=O)OC12C=CC(=O)N1c1ccccc1C(=O)O2 (configuration not stated) | > 100 µM | 
CCCC(=O)Nc1cc2c3c(c1)CCCN3CCC2 | > 10 µM | 
COc1cc(-c2cc(-c3cc4c([nH]c5ccccc54)c(-c4cc(OC)c(OC)c(OC)c4)n3)cc(-c3ccccc3)n2)cc(OC)c1OC | > 100 µM | 7.3 µM
O=C1C=CC(=O)c2cc3cc(CBr)ccc3cc21 | 19.2 µM | 6.16 µM
CC(C)Oc1ccc2cc(-c3nn(CC4CCNCC4)c4ncnc(N)c34)ccc2c1 | 24.6 µM | 9.53 µM
COc1cc(F)ccc1-c1ncnc(Nc2cccc(CS(C)(=N)=O)c2)n1 (configuration not stated) | > 100 µM | 2.54 µM
CS(=O)(=O)CCNCc1nc(-c2ccc3ncnc(Nc4ccc(OCc5cccc(C(F)(F)F)c5)cc4)c3c2)cs1 | > 25 µM | > 25 µM
CC(C)CC(NC(=O)OCc1ccccc1)C(=O)NC(Cc1ccccc1)C(=O)CCl (stereo not drawn) (Cbz-Leu-Phe-CH2Cl; configuration not given here) | 26.1 µM | 
[Cl][Hg][c]1cc[c]([Hg][Cl])o1 | 42.9 µM | 17 µM
CCOC(=O)C(Cc1ccc(CCCC(=O)NCCC(=O)Nc2ccc3nc(C)sc3c2)cc1)C(=O)OCC | > 100 µM | 60.4 µM
NCCNc1c2c(c(NCCN)c3[nH]ccc13)C(=O)c1ccccc1C2=O | 0.093 µM | < 0.01 µM
Cc1c2c(C#N)nccc2c(C)c2c1c1ccccc1n2Cc1ccccc1 | > 100 µM | 
CCOC(=O)Nc1ccc(-c2nc(-c3cccc(OCCN4CCOCC4)c3)c(-c3ccnc(Br)c3)[nH]2)cc1 | 6.11 µM | 2.28 µM
COc1cc(Cn2c(-c3ccccc3)c(Cl)c3c2-c2oncc2CC3)cc(OC)c1 | > 100 µM | 9.97 µM
COc1ccc(-c2nn(-c3ccc(NC(=O)c4ccc(Cl)c(Cl)c4)cc3)cc2-c2ccncc2)cc1Cl | > 50 µM | 1.85 µM
CN(C)C(n1cc2c(c1)-c1ccc(Cl)cc1C(c1ccccc1F)=NC2)n1cc2c(c1)-c1ccc(Cl)cc1C(c1ccccc1F)=NC2 | > 100 µM | 
COc1cccc2c1C(=O)c1c(O)c3c(c(O)c1C2=O)C[C@](O)(C(=O)CO)C[C@H]3O[C@@H]1C[C@@H](NC(=O)CCCCCN(C)C2(c3ccc(F)cc3)CC3CCC2C3)[C@H](O)[C@@H](C)O1 (some centres not stated) | 3.37 µM | 1.03 µM

test system: M14 melanoma; assay: NCI anticancer screen, dose series, 48 h

Structure (SMILES) | TGI | GI50
O=C(O)Cc1cc(Cl)ccc1O | > 100 µM | 
COc1ccc(C(=O)/C=C/c2cc(-c3cc(OC)c(OC)c(OC)c3)n[nH]2)cc1OC | 3.69 µM | 1.84 µM
C=C(C)[C@@H]1CC[C@]2(C)[C@H](CC=C3[C@@H]4CC(C)(C)CC[C@]4(C(N)=O)CC[C@]32C)[C@@]1(C)CCC#N | > 100 µM | 3.11 µM
COc1c(OC[C@H](O)CN2CCOCC2)ccc2c3n(c(=NC(=O)c4cccnc4C)nc12)CCN3 | > 50 µM | 27.8 µM
O=C(c1ccccc1Br)C(F)(F)F | > 100 µM | 
COc1ccc(-c2nc3ccc(-c4nc5ccc(N6CCN(c7ccccc7)CC6)cc5[nH]4)cc3[nH]2)cc1OC | 6.32 µM | 1.69 µM
O=C(N[C@@H](c1ccc(Cl)c(Cl)c1)C1CNC1)c1ccc2cnccc2c1 | 8.4 µM | 0.343 µM
CO/N=C(\COc1ccc2c(c1)oc(=O)c1cc(OC)ccc12)c1ccc(OC)cc1 | > 100 µM | > 100 µM
O=C1OCC2=C1C(c1cccc(Br)c1)c1cc3c(cc1N2CCO)CCC3 (configuration not stated) | 5.78 µM | 0.078 µM
Clc1ccc2[nH]cc(-c3nnnn3-c3ccccc3)c2c1 | 41.8 µM | 9.74 µM
CC(=O)OC12C=CC(=O)N1c1ccccc1C(=O)O2 (configuration not stated) | > 100 µM | 
CCCC(=O)Nc1cc2c3c(c1)CCCN3CCC2 | > 10 µM | 
COc1cc(-c2cc(-c3cc4c([nH]c5ccccc54)c(-c4cc(OC)c(OC)c(OC)c4)n3)cc(-c3ccccc3)n2)cc(OC)c1OC | > 100 µM | 3.49 µM
O=C1C=CC(=O)c2cc3cc(CBr)ccc3cc21 | 23.4 µM | 8.58 µM
CC(C)Oc1ccc2cc(-c3nn(CC4CCNCC4)c4ncnc(N)c34)ccc2c1 | 4.68 µM | 2.05 µM
COc1cc(F)ccc1-c1ncnc(Nc2cccc(CS(C)(=N)=O)c2)n1 (configuration not stated) | > 100 µM | 2.25 µM
CS(=O)(=O)CCNCc1nc(-c2ccc3ncnc(Nc4ccc(OCc5cccc(C(F)(F)F)c5)cc4)c3c2)cs1 | > 25 µM | > 25 µM
CC(C)CC(NC(=O)OCc1ccccc1)C(=O)NC(Cc1ccccc1)C(=O)CCl (stereo not drawn) (Cbz-Leu-Phe-CH2Cl; configuration not given here) | 3.45 µM | 
[Cl][Hg][c]1cc[c]([Hg][Cl])o1 | 12 µM | 2.53 µM
CCOC(=O)C(Cc1ccc(CCCC(=O)NCCC(=O)Nc2ccc3nc(C)sc3c2)cc1)C(=O)OCC | > 93.8 µM | 29.3 µM
NCCNc1c2c(c(NCCN)c3[nH]ccc13)C(=O)c1ccccc1C2=O | 2.76 µM | 1.45 µM
Cc1c2c(C#N)nccc2c(C)c2c1c1ccccc1n2Cc1ccccc1 | > 100 µM | 
CCOC(=O)Nc1ccc(-c2nc(-c3cccc(OCCN4CCOCC4)c3)c(-c3ccnc(Br)c3)[nH]2)cc1 | 13.7 µM | 2.97 µM
COc1cc(Cn2c(-c3ccccc3)c(Cl)c3c2-c2oncc2CC3)cc(OC)c1 | 18.1 µM | 4.22 µM
COc1ccc(-c2nn(-c3ccc(NC(=O)c4ccc(Cl)c(Cl)c4)cc3)cc2-c2ccncc2)cc1Cl | > 12.9 µM | 1.67 µM
CN(C)C(n1cc2c(c1)-c1ccc(Cl)cc1C(c1ccccc1F)=NC2)n1cc2c(c1)-c1ccc(Cl)cc1C(c1ccccc1F)=NC2 | > 100 µM | 
COc1cccc2c1C(=O)c1c(O)c3c(c(O)c1C2=O)C[C@](O)(C(=O)CO)C[C@H]3O[C@@H]1C[C@@H](NC(=O)CCCCCN(C)C2(c3ccc(F)cc3)CC3CCC2C3)[C@H](O)[C@@H](C)O1 (some centres not stated) | 14.3 µM | 3.48 µM
